Results taken from patent US5278191A, “Diphenylmethylaminoacetamide derivatives as anti-convulsants” (G. D. Searle & Co., priority 1991, dated 1994).

What was measured:
[1] = tested on: 5HTP-induced head twitch; experiment: 5HTP-induced head twitch; format: in vivo, mice
Method: (§1) Treatment of a mammal afflicted by or susceptible to certain CNS disorders is accomplished by administration of a therapeutically-effective amount of a compound of Formula I. In particular, Compounds #1-19 of Tables I and II were evaluated by in vitro and in vivo animal model assays to determine the pharmacological properties of such compounds and their likely suitability for use as therapeutic drugs in humans. These biological assays, as described below, consisted of prevention of induced convulsions in mice, determination of acute toxicity in mice and animal behavior assays. Except as otherwise specified, the animals used in the in vivo tests were male Swiss albino mice weight 22 to 33 g [CD1, Charles River, France], housed in groups of 10 on a 12-hour dark-light cycle for at least one week before use and fasted overnight prior to testing.
Compound #18 was evaluated for inhibition of head twitches produced in mice by administration of L-5-hydroxytryptophan (5HTP, 10 mg/kg intraperitoneously) after nialamide treatment (50 mg/kg intraperitoneal, 22 hours before the test). The head twitches were counted for 45 min. starting 15 min. after 5HTP administration. [E. Friedmann & al.; Europ. J. Pharmocol., 89, 69-76 (1983)].

[2] = tested on: 3-mercaptopropionic acid (3-MPA)-induced convulsions; experiment: 3-MPA-induced convulsions, protection of mice; format: in vivo, male Swiss albino mice; settings: 3-MPA 120 mg/kg s.c.; for Number of Mice Protected From 3-MPA-Induced Convulsions: total protected of two groups of 5 mice
Method: as §1
Compounds of Formula I were evaluated as inhibitors of convulsions and death induced by different convulsant agents: 3-mercaptopropionic acid (3-MPA; 120 mg/kg subcutaneously), pentylenetetrazole (PTZ, 55 mg/kg intravenously) and supramaximal electroconvulsive shocks (ECS evoked by a current intensity of 48 mA, 50 Hz. 0.2 sec duration, 10 msec square pulse, corneal electrodes) [W. van Dorsser, D. Barris, A. Cordi and J. Roba, Arch. Int. Pharmacodyn., 266, 239-249 (1983)]. The compounds of the invention were administered orally at a dosage of either 100 mg/kg or 30 mg/kg in a volume of 10 ml/kg each to 5 mice at intervals of 30 minutes or 2 hours before convulsions were induced. The number of mice protected against tonic convulsions and the number of dead mice were noted. Results are given in Table III as a score which represents the total number of mice protected for two groups of 5 animals (3-MPA).
(§2) Based upon data generated from the previously-described anti-convulsant experiments, ED50 values were calculated at which Compound #18 inhibits convulsions induced by the convulsant agents listed in Table V.

[3] = Acute toxicity after oral administration; settings: mouse, in vivo, mice, mortality over 15 days
Method: as §1
(§3) The acute toxicity of compounds of the invention was determined after oral administration of the test compound to mice. Compound to be tested was suspended in a 1% tragacanth gum mucilage, and was administered by means of an intragastric probe to a group of three male mice, which doses varied from 3,000 mg/kg down to about 3 mg/kg. Doses used in the test were determined by observing toxic effects on the mice. The mortality was recorded over a period of 15 days. The LD50 results reported in Table V were calculated according to published methods [Lichtfield and Wilcoxon, J. Pharmacol. Exp. Ther., 96, 99 (1949)] and expressed in mg or test compound per kilogram of mouse body weight.

[4] = tested on: mice; design: species or system male Swiss albino mice; settings: mouse, in vivo, po
Method: as §1, §3
Behavioral effects of compounds of the invention on animals were determined by observations taken at 5 to 6 hours and at 24 hours after administration of compounds in the acute toxicity studies. Determinations were made based on a method derived from that of S. Irwin [See R. A. Turner, Screening Methods in Pharmacology, Chapter 3, pages 22-34, Academic Press, N.Y. (1965)]. If an anomaly were noted, the observation was extended and smaller doses were tested. Possible types of behavior to be observed are as follows: analgesia (AAG), convulsions (CON), depression (DEP), exophthalmia (EOP), excitation (EXC), hyperalgesia (HAG), hypothermia (ATH), hypotonia (ATN), piloerection (PIE), palpebral ptosis (PTO), reduction of the pinna reflex (RPI), reduction of the rearing reflex (RRE), reduction of the flexion reflex (RRF), sedation (SED), tremors (TRE), cyanosis (CYA), diarrhea (DIA), increase of the pinna reflex (HPI), increase of the flexion reflex (HRF), dyspnea (DYS). Behaviors observed are reported in Table IV by numbers which represent the dose at which the behavior is observed.

[5] = tested on: supramaximal electroconvulsive shocks (ECS)-induced convulsions; experiment: Supramaximal electroconvulsive shock (ECS) induced convulsions; format: in vivo, male Swiss albino mice; settings: Mus musculus; oral; ECS 48 mA, 50 Hz, 0.2 sec; read-out: Inhibition of Convulsions (ED50), ECS
Method: as §1, with “Except as otherwise specified, the animals used in the in vivo tests were male Swiss albino mice weight 22 to 33 g [CD1, Charles River, France], housed in groups of 10 on a 12-hour dark-light cycle for at least one week before use and fasted overnight prior to testing.” left out
(§4) Compounds of Formula I were evaluated as inhibitors of convulsions and death induced by different convulsant agents: 3-mercaptopropionic acid (3-MPA; 120 mg/kg subcutaneously), pentylenetetrazole (PTZ, 55 mg/kg intravenously) and supramaximal electroconvulsive shocks (ECS evoked by a current intensity of 48 mA, 50 Hz. 0.2 sec duration, 10 msec square pulse, corneal electrodes) [W. van Dorsser, D. Barris, A. Cordi and J. Roba, Arch. […]
as §2

[6] = tested on: pentylenetetrazole (PTZ)-induced convulsions; experiment: Pentylenetetrazole (PTZ) induced convulsions; format: in vivo, male Swiss albino mice; settings: Mus musculus; oral; PTZ 55 mg/kg i.v.; read-out: Inhibition of Convulsions (ED50), PZT
Method: as §1, with “Except as otherwise specified, the animals used in the in vivo tests were male Swiss albino mice weight 22 to 33 g [CD1, Charles River, France], housed in groups of 10 on a 12-hour dark-light cycle for at least one week before use and fasted overnight prior to testing.” left out
as §4, §2

[7] = tested on: afterdischarge-like spike activity; experiment: Chronic focal epilepsy assay (cobalt powder on frontal cortex, EEG); format: in vivo; settings: intraperitoneal, rat
Excerpt: In a model of chronic focal epilepsy where cobalt powder is placed on rat frontal cortex, the animals develop, after several days, chronic expression of afterdischarge-like spike activity which can be recorded by EEG.

[8] = tested on: hypomotility induced by the α2 agonist clonidine; experiment: Clonidine-induced hypomotility; format: in vivo; settings: 10 mg/kg; clonidine 150 mg/kg i.p.; eight mice, 90 min after clonidine
Method: as §1
Given alone, clonidine inhibits spontaneous locomotor and rearing activity. Eight test mice were treated with Compound #18 and subsequently with clonidine ([…], intraperitoneal). Then, 90 min. after clonidine administration the mice were placed in a rectangular open field of 47×53 cm, having a floor divided into 36 boxes of about 8×9 cm. The number of boxes through which the animal goes in 3 min. and the number of rearing episodes were noted.

Row | SMILES | Number of Mice Protected From 3-MPA-Induced Convulsions ([2]; oral 100 mpk, interval 30 min) [mice] | LD50 at 360 h [3] [mg/kg] | Behavior: dose at which sedation (SED) is observed [4] [mg/kg] | Number of Mice Protected From 3-MPA-Induced Convulsions ([2]; oral 30 mpk, interval 30 min) [mice] | further results
1 | CCCCCNCC(N)=O [2-pentylaminoacetamide, reference compound] |  |  |  |  | effect on 5HTP-induced head twitch (comparison compound) ([1]; under similar test conditions): potentiates 5HTP-induced head twitch
2 | NC(=O)CNC(c1ccccc1)c1ccc(Cl)cc1 (stereo not shown) [Compound 1, 2-[(4-chlorophenyl)phenyl]methylaminoacetamide] | 9 | 2400 | 1000 |  | Behavior: dose at which convulsions (CON) are observed [4]: 1000 mg/kg; Behavior: dose at which hypotonia (ATN) is observed [4]: 1000 mg/kg
3 | COc1ccc(C(NCC(N)=O)c2ccccc2)cc1 (stereo not shown) [Compound 2, 2-[(4-methoxyphenyl)phenyl]methylaminoacetamide] | 8 |  |  |  | 
4 | Cc1ccc(C(NCC(N)=O)c2ccccc2)cc1 (stereo not shown) [Compound 3, 2-[(4-methylphenyl)phenyl]methylaminoacetamide] |  | > 3000 | 1000 | 1 | Behavior: dose at which depression (DEP) is observed [4]: 3000 mg/kg
5 | Cc1ccccc1C(NCC(N)=O)c1ccccc1 (stereo not shown) [Compound 4, 2-[(2-methylphenyl)phenyl]methylaminoacetamide] |  | 780 | 300 | 5 | Behavior: dose at which hypotonia (ATN) is observed [4]: 300 mg/kg
6 | Cc1cccc(C(NCC(N)=O)c2ccccc2)c1 (stereo not shown) [Compound 5, 2-[(3-methylphenyl)phenyl]methylaminoacetamide] |  | 3500 | 1000 | 2 | 
7 | Cc1ccc(C(NCC(N)=O)c2ccccc2)cc1C (stereo not shown) [Compound 6, 2-[(3,4-dimethylphenyl)phenyl]methylaminoacetamide] |  | 3500 | 3000 | 2 | Behavior: dose at which hypotonia (ATN) is observed [4]: 3000 mg/kg
8 | NC(=O)CNC(c1ccccc1)c1ccc(C(F)(F)F)cc1 (stereo not shown) [Compound 7, 2-[(4-trifluoromethylphenyl)phenyl]methylaminoacetamide] |  |  |  | 4 | 
9 | NC(=O)CNC(c1ccc(Cl)cc1)c1ccc(Cl)cc1 [Compound 8, 2-[di(4-chlorophenyl)]methylaminoacetamide] |  |  |  | 1 | 
10 | Cc1ccc(C)c(C(NCC(N)=O)c2ccccc2)c1 (stereo not shown) [Compound 9, 2-[(2,5-dimethylphenyl)phenyl]methylaminoacetamide] |  |  |  | 1 | 
11 | NC(=O)CNC(c1ccccc1)c1ccc(Br)cc1 (stereo not shown) [Compound 10, 2-[(4-bromophenyl)phenyl]methylaminoacetamide] |  | > 1000 | 1000 | 3 | 
12 | NC(=O)CNC(c1ccc(F)cc1)c1ccccc1F (stereo not shown) [Compound 11, 2-[(4-fluorophenyl)(2-fluorophenyl)]methylaminoacetamide] |  | 315 | 100 | 8 | Behavior: dose at which convulsions (CON) are observed [4]: 1000 mg/kg; Behavior: dose at which depression (DEP) is observed [4]: 1000 mg/kg
13 | NC(=O)CNC(c1ccccc1)c1ccc(F)cc1 (stereo not shown) [Compound 12, 2-[(4-fluorophenyl)phenyl]methylaminoacetamide] | 10 |  |  | 9 | 
14 | NC(=O)CNC(c1ccc(F)cc1)c1ccc(F)cc1 [Compound 13, 2-[di(4-fluorophenyl)]methylaminoacetamide] |  |  |  | 5 | 
15 | Cc1ccc(C(NCC(N)=O)c2ccccc2)c(C)c1 (stereo not shown) [Compound 14, 2-[(2,4-dimethylphenyl)phenyl]methylaminoacetamide] | 6 |  |  | 3 | 
16 | NC(=O)CNC(c1ccccc1)c1cccc(Cl)c1 (stereo not shown) [Compound 15, 2-[(3-chlorophenyl)phenyl]methylaminoacetamide] | 9 |  |  |  | 
17 | NC(=O)CNC(c1ccccc1)c1ccccc1Cl (stereo not shown) [Compound 16, 2-[(2-chlorophenyl)phenyl]methylaminoacetamide] | 9 |  |  |  | 
18 | NC(=O)CNC(c1ccc(F)cc1)c1ccccc1Cl (stereo not shown) [Compound 17, 2-[(2-chlorophenyl)(4-fluoropheny)]methylaminoacetamide] | 10 |  |  |  | 
19 | NC(=O)CNC(c1ccccc1)c1ccccc1 [Compound 18, 2-diphenylmethylaminoacetamide] | 10 | 1020 |  | 9 | ED50 ([2]; Mus musculus, oral, read-out: Inhibition of Convulsions (ED50), 3-MPA): 9.3 mg/kg; Number of Mice Protected From 3-MPA-Induced Convulsions ([2]; oral 100 mpk, interval 2 hr): 10 mice; ED50 [5]: 26 mg/kg; ED50 [6]: 66 mg/kg; Behavior: dose at which depression (DEP) is observed [4]: 1000 mg/kg; Behavior: dose at which palpebral ptosis (PTO) is observed [4]: 1000 mg/kg; time over which inhibition of spike activities was observed ([7]; threshold dose of 50 mg/kg): 14 to 90 min; minimal effective dose ([7]; ip, read-out: threshold dose for inhibiting spike activities): 50 mg/kg; ED50 ([1]; Mus musculus, po, 2 hours before 5HTP (10 mg/kg i.p.), nialamide pretreated mice, read-out: ED50 for inhibition of 5HTP-induced head twitches): 10 mg/kg; effect on 5HTP-induced head twitch ([1]; mice, nialamide treatment): inhibited 5HTP-induced head twitch; effect on clonidine-induced hypomotility [8]: seems unable to alter the hypomotility
